Reference: publication PMC8588536, “Iridal-Type Triterpenoids Displaying Human Neutrophil Elastase Inhibition and Anti-Inflammatory Effects from Belamcanda chinensis” (Molecules, 2021)

Tests used:
[1] = test system: TNF-α mRNA in LPS-stimulated RAW264.7 cells; assay: TNF-α mRNA expression by RT-PCR; format: cell-based, mouse; conditions: 1 or 3 µg/mL, n = 6, p < 0.05
Procedure: (§1) Total RNA was isolated from cultured RAW264.7 cells using TRIzol reagent (Ambion®, Carlsbad, CA, USA) according to the manufacturer’s instructions. First strand cDNA was synthesized from the total RNA (3 μg) using oligo dT (DiaStar RT Kit, SolGent, Daejeon, Korea) and was used as a template for PCR amplification with G-Taq polymerase (Cosmogenetech, Seoul, Korea). The first-strand cDNA was quantified using a spectrophotometer (NanoDrop® ND-1000, NanoDrop Technologies, Wilmington, […], USA). The quantified cDNA was used as a template. PCR assay was performed with specific primers for inducible nitric oxide (iNOS), IL-1β, and TNF-α. The PCR steps included initial denaturation at 94 °C for 5 min, then 28 cycles at 94 °C for 30 s, 57 °C for 30 s, and 72 °C for 30 s, and a final extension step at 72 °C for 10 min. The amplified PCR products were separated in 1.5% agarose gel, and the gel was stained with ethidium bromide. The bands were visualized using the iBright^TM CL1500 imaging system (Thermo Scientific Fisher/Life Technologies Holdings Pte Ltd., Singapore). The DNA fragments were directly sequenced with the ABI PRISM® 3100-Avant Genetic Analyzer (Applied Biosystems, Carlsbad, CA, USA).

RAW264.7 cells = assay: MTT cell viability assay; format: cell-based, mouse; conditions: 10 µg/mL, 24 h
Procedure: The mouse macrophage cell line RAW264.7 was obtained from the American Type Culture Collection (ATCC, Manassas, VA, USA). The cells were cultured in DMEM supplemented with 10% fetal bovine serum (FBS), penicillin (100 U/mL), and streptomycin (100 μg/mL) at 37 °C with 5% CO2. The medium was replaced every 2 days. After treatment with chemicals, the cell morphological changes were observed under a microscope and images are captured before cell viability assay.
Cell viability was determined calorimetrically using a 3-(4,5-dimethylthiazole-2-yl)-2,5-diphenyl tetrazolium bromide (MTT) reagent (5 mg/mL in phosphate buffered saline (PBS), Duchefa Biochemie, Haarlem, The Netherlands). The MTT assay procedures were performed as described previously. Briefly, a 24-well plate (5 × 10^4 cells/well) was seeded with RAW264.7, a mouse macrophage cell line. After 24 h of chemical treatment, each well was filled with 20 µL of 5 mg/mL MTT solution (0.1 mg/mL) and incubated for 4 h. After aspirating the supernatants, the formazan crystals in each well were dissolved in 200 µL of dimethyl sulfoxide (DMSO) for 30 min at 37 °C, and the 24-well plates were read at 570 nm with a microplate reader (Bio-Rad, Hercules, CA, USA). Data are expressed as a percentage of viable cells compared with the control.

[2] = test system: IL-1β mRNA in LPS-stimulated RAW264.7 cells; assay: IL-1β mRNA expression by RT-PCR; format: cell-based, mouse; conditions: 1 or 3 µg/mL, n = 6, p < 0.05
Procedure: as §1

[3] = target: T1, Human neutrophil elastase (HNE, EC 3.4.21.37) (Homo sapiens, UniProt P08246); assay: Human neutrophil elastase inhibition, spectrophotometric, MeOSuc-AAPV-pNA substrate; format: biochemical; conditions: for Ki: Dixon plots, read-out: Ki (inhibition constant); for Type of Inhibition: Lineweaver-Burk and Dixon plots, reversibility from activity vs enzyme concentration plots; for IC50: concentration that caused 50% enzyme activity loss, three sets of experiments
T1 construct: purchased Sigma-Aldrich
T1 sequence (P08246 30-267): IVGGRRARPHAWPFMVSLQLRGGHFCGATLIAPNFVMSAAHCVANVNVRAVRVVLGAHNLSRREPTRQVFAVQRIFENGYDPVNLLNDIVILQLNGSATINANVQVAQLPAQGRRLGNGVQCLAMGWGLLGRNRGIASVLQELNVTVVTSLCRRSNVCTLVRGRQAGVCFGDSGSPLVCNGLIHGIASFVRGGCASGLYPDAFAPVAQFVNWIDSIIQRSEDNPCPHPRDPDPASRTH
Procedure: Human neutrophil elastase (EC 3. 4. 21. 37) (Sigma-Aldrich, St. Louis, MO, USA) activity was measured in accordance with the previous description with subtle modification, by observing the formation of p-nitroaniline after the hydrolysis of N-methoxysuccinyl-Ala-Ala-Pro-Val-p-nitro anilide at 405 nm. The inhibitors were dissolved in dimethyl sulfoxide (DMSO) and diluted to a few concentrations. In brief, in a 96-well plate, 10 µL of inhibitor solution and 40 µL of 1.5 mM of MeOSuc-AAPV-pNA were added as a substrate in the 0.02 mM Tris-HCl buffer solutions (pH 8.0). Then, 20 µL of human neutrophil elastase (0.2 unit/mL) was added to the mixture. The test mixtures were incubated and mixed for 15 min at room temperature and then screened at 405 nm for 30 min every 30 s.
Activity (%) = 100 [1/(1 + ([I]/IC50))].(1)
The modalities of HNE inhibition were estimated in experiments using particular concentrations of the substrates and inhibitors, respectively. The Michaelis–Menten constant (Km) and maximal velocity (Vmax) were investigated by a Lineweaver–Burk plot. The KI, dissociation constants for inhibitor binding to the free enzyme were calculated using a Dixon plot. Equations (2)–(4) are representatives for deriving the aforementioned parameters. (2) 1/V=Km/Vmax(1+[I]/Ki)×1/S+1/Vmax (3) Slop=Km/KiVmax[I]+Km/Vmax (4) Intercept=1/KiVmax[I]+1/Vmax.

[4] = test system: NF-κB p65 in LPS-stimulated RAW264.7 cells; assay: NF-κB nuclear translocation, immunocytochemistry; format: cell-based, mouse; conditions: pre-treatment 2 h prior to LPS 1 µg/mL for 16 h
Procedure: RAW264.7 cells cultured on round cover slips coated with poly-L-lysine were treated with triterpenoids (1 or 3 µg/mL) 2 h prior to LPS treatment, followed by LPS (1 µg/mL) for 16 h. The cells were washed with 1 x phosphate buffered saline (PBS) and fixed with 4% paraformaldehyde for 30 min. After washing the fixed cells with PBS, the cells were permeabilized with a blocking buffer (1% normal goat serum and 0.2% Triton X-100 in PBS) for 30 min at room temperature, and were incubated with an anti-NF-κB p65 antibody (1:200 dilution, Cell Signaling Technology, Danvers, MA, USA) at 4 °C overnight. After three washes in PBS, the cells were incubated in the dark for 1 h with the mixture of FITC-conjugated anti-rabbit IgG fluorescent secondary antibody diluted at 1:500 in PBS. Finally, the cells were stained with 2 µg/mL Hoechst for nuclei staining. The cells were washed with PBS, wet-mounted on glass slides, and observed using a confocal laser-scanning microscope (Olympus, Tokyo, Japan). The negative control (NC) was analyzed by omitting the primary antibody.

## CC(C)=CCC/C(C)=C/C[C@@H](O)/C(C)=C/CC[C@@]1(C)[C@H](CCCO)/C(=C(/C)C=O)CC[C@]1(C)O [Compound 1, isoiridogermanal]
[1]
  LPS-upregulated TNF-α mRNA level: noticeably decreased
RAW264.7 cells
  reduction of cell viability: 28.8 ± 4.4%
[2]
  LPS-upregulated IL-1β mRNA level: noticeably decreased
[3]
  Ki: 12.7 µM
  Type of Inhibition: noncompetitive inhibition
  IC50: 14.4 ± 0.3 µM
[4]
  NF-κB translocation to the nucleus (immunocytochemical staining): suppressed

## CC(C)=CCCC(C)=CCC(O)C(C)=CCCC1(C)C(CCCO)C(=C(C)C=O)CCC1(C)O (centres unmarked) [Compound 2, iridobelamal A]
[1]
  LPS-upregulated TNF-α mRNA level: noticeably decreased
RAW264.7 cells
  reduction of cell viability: 23.4 ± 5.1%
[2]
  LPS-upregulated IL-1β mRNA level: noticeably decreased
[3]
  Ki: 24.9 µM
  Type of Inhibition: noncompetitive inhibition
  IC50: 27 ± 0.6 µM
[4]
  NF-κB translocation to the nucleus (immunocytochemical staining): suppressed
